Entries after “also recorded” stand apart in the source; their conditions may differ. Marks after values point to notes of the source that are not given here.
Assays:
Format in all cases: in vivo, human
[1] = Fatty acid analysis of blood cell phospholipids and plasma lipid fractions after ingestion of test fatty acids; settings: for DHA (% of total fatty acids), Erythrocyte phospholipid / DHA (% of total fatty acids), Plasma phospholipid / DPA (% of total fatty acids), Erythrocyte phospholipid / DPA (% of total fatty acids), Plasma phospholipid / EPA (% of total fatty acids), Monocyte / EPA (% of total fatty acids), Plasma CE / EPA (% of total fatty acids), Plasma Phospholipid / EPA (% of total fatty acids), Plasma TG / EPA (% of total fatty acids), Platelet / EPA (% of total fatty acids), Red Blood: both, human, in vivo
Excerpt: 45 males and post-menopausal female—19–65 years of age, normolipidemic, and with a body mass index (BMI) in the range 20 to 30, were recruited. Exclusion criteria included bleeding disorders, hypertension, inflammatory disorders, active gastrointestinal diseases, chronic use of low dose aspirin, consumption of restaurant or takeaway evening meals more than twice per week, use of dietary supplements rich in n-3 or n-6 fatty acids, habitual consumption of more than 1 fish meal per month, and plasma phospholipid EPA+DHA levels>7.9% of total fatty acids (level achieved in the study group was 4.9±1.0% of total fatty acids).
(§1) Following a 3-week run-in period, subjects ingested either ALA, SDA, EPA supplied as ethyl esters in capsules. Intakes were 0.75 g/day for 3 weeks followed by 1.5 g/day for the subsequent 3 weeks.
At each visit, 36 mL of blood was taken by venepuncture after an overnight fast. Blood was aliquoted into various tubes for the following procedures.
Blood (20 mL) was added to tubes containing 4 mL 4.5% EDTA in water and 4 mL—6% dextran in normal saline, pH 7.0. Erythrocytes were allowed to sediment under gravity at 37° C. for 30 min. The leucocyte-rich plasma was layered onto LYMPHOPREP, density 1.077 (Nycomed Pharma, Oslo) and centrifuged at 110 g for 10 min to separate leucocytes from the platelets, which were removed. The gradient was further centrifuged at 200 g for 20 min to separate the neutrophils from mononuclear cells, which were removed.
Samples were processed for fatty acid analysis as described in Mantzioris et al., Am. J. Clin. Nutr., 72:42–8 (2000). Plasma, washed platelet and mononuclear cell pellets were stored at −80° C. Erythrocyte pellets were treated fresh with chloroform:isopropanol (2:1) and the lipid extracts stored at 4° C. Plasma, platelet and mononuclear cell pellets were extracted with chloroform:methanol. The cellular and plasma lipid extracts were fractionated by thin-layer chromatography. For the cellular extracts, the phospholipid fraction was retained and for the plasma extracts, the phospholipid, cholesterol ester, and triglyceride fractions were retained. These were transesterified by methanolysis (1% H2SO4 in methanol at 70° C. for 3 h). Fatty acid methyl esters were separated and quantified with a HEWLETT-PACKARD 6890 gas chromatograph equipped with a 50 m capillary column coated with BPX-70 (0.25 μm film thickness; SGE Pty Ltd, Victoria, Australia) (see Mantzioris et al., supra). Fatty acid standards were obtained from NuChek Prep Inc. (Elysian, Minn.) and included stearidonic acid obtained from Sigma Aldrich Pty Ltd. (Castle Hill, NSW, Australia). All organic solvents contained butylated hydroxy anisole (0.005%) as an antioxidant.

TNF-α = TNF-α synthesis in LPS-treated whole blood; settings: mean ± SD
Experimental: as §1
(§2) Blood (4 mL) was added to heparinised tubes, bacterial lipopolysaccharide (LPS) was added (200 ng/mL), and the mixture was incubated at 37° C., 5% CO2, for 24 h. Plasma was collected and assayed for prostaglandin E2 (PGE2) by radioimmunoassay (RIA), interleukin-1β (IL-1β) and tumor necrosis factor-α (TNF-α) by ELISA, as described in Mantzioris et al., supra.

IL-1β = IL-1β synthesis in LPS-treated whole blood; settings: mean ± SD
Experimental: as §1, §2

prostaglandin E2 (PGE2) = test: PGE2 synthesis in LPS-stimulated whole blood; settings: for PGE2 synthesis in LPS-stimulated whole blood: mean ± SD
Experimental: as §1, §2

[2] = Week 3 (after 0.75 g/day for 3 weeks)
[3] = Week 6 (after 1.5 g/day for 3 weeks)
[4] = Week −3 (start of run-in, before dosing)

Effect on DPA concentration in the phospholipid fractions of erythrocytes and plasma ([1]; 0.75 g/day): significantly increased | Effect on EPA concentration in the phospholipid fractions of erythrocytes and plasma ([1]; 0.75 g/day (weeks 0 to 3)): significantly increased | DHA (% of total fatty acids), Erythrocyte phospholipid ([1]; 0 week): 4.62 ± 0.69^b % of total fatty acids | DHA (% of total fatty acids), Plasma phospholipid ([1]; 0 weeks): 3.75 ± 0.77^ab % of total fatty acids | DPA (% of total fatty acids), Erythrocyte phospholipid ([1]; 0 weeks): 2.81 ± 0.24^a % of total fatty acids | DPA (% of total fatty acids), Plasma phospholipid ([1]; 0 weeks): 1.34 ± 0.22^a % of total fatty acids | EPA (% of total fatty acids), Monocyte ([1]; 0 weeks): 0.52 (0.11)a % of total fatty acids | EPA (% of total fatty acids), Plasma CE ([1]; 0 weeks): 1.02 (0.20)a % of total fatty acids | EPA (% of total fatty acids), Plasma Phospholipid ([1]; 0 weeks): 1.04 (0.23)a % of total fatty acids | EPA (% of total fatty acids), Plasma TG ([1]; 0 weeks): 0.27 (0.09)a % of total fatty acids | EPA (% of total fatty acids), Platelet ([1]; 0 weeks): 0.45 (0.09)a % of total fatty acids | EPA (% of total fatty acids), Red Blood ([1]; 0 weeks): 0.81 (0.14)^a % of total fatty acids | EPA (% of total fatty acids), Monocyte ([1]; 3 weeks): 1.38 (0.35)b1 % of total fatty acids | EPA (% of total fatty acids), Plasma CE ([1]; 3 weeks): 2.95 (0.74)b1 % of total fatty acids | EPA (% of total fatty acids), Plasma Phospholipid ([1]; 3 weeks): 2.71 (0.71)b1 % of total fatty acids | EPA (% of total fatty acids), Plasma TG ([1]; 3 weeks): 0.73 (0.20)b1 % of total fatty acids | EPA (% of total fatty acids), Platelet ([1]; 3 weeks): 1.08 (0.26)b1 % of total fatty acids | EPA (% of total fatty acids), Red Blood ([1]; 3 weeks): 1.60 (0.31)^b1 % of total fatty acids | EPA (% of total fatty acids), Monocyte ([1]; 6 weeks): 2.25 (0.74)c1 % of total fatty acids | EPA (% of total fatty acids), Plasma CE ([1]; 6 weeks): 4.53 (1.31)c1 % of total fatty acids | EPA (% of total fatty acids), Plasma Phospholipid ([1]; 6 weeks): 4.48 (1.35)c1 % of total fatty acids | EPA (% of total fatty acids), Plasma TG ([1]; 6 weeks): 1.23 (0.47)c1 % of total fatty acids | EPA (% of total fatty acids), Platelet ([1]; 6 weeks): 1.68 (0.43)c1 % of total fatty acids | EPA (% of total fatty acids), Red Blood ([1]; 6 weeks): 2.56 (0.65)^c1 % of total fatty acids | DHA (% of total fatty acids), Erythrocyte phospholipid ([1]; -3 week): 5.02 ± 0.89^a1,2 % of total fatty acids | DHA (% of total fatty acids), Plasma phospholipid ([1]; -3 weeks): 3.97 ± 1.06^a % of total fatty acids | DPA (% of total fatty acids), Erythrocyte phospholipid ([1]; -3 weeks): 2.92 ± 0.45^a1,2 % of total fatty acids | DPA (% of total fatty acids), Plasma phospholipid ([1]; -3 weeks): 1.31 ± 0.29^a % of total fatty acids | EPA (% of total fatty acids), Monocyte ([1]; -3 weeks): 0.66 (0.32)^a % of total fatty acids | EPA (% of total fatty acids), Plasma CE ([1]; -3 weeks): 1.03 (0.34)^a % of total fatty acids | EPA (% of total fatty acids), Plasma Phospholipid ([1]; -3 weeks): 1.10 (0.40)^a % of total fatty acids | EPA (% of total fatty acids), Plasma TG ([1]; -3 weeks): 0.31 (0.15)^a % of total fatty acids | EPA (% of total fatty acids), Platelet ([1]; -3 weeks): 0.44 (0.12)^a % of total fatty acids | EPA (% of total fatty acids), Red Blood ([1]; -3 weeks): 0.85 (0.16)^a % of total fatty acids | Effect on tissue levels of DHA (FIG. 1) ([1]; erythrocytes and plasma phospholipids, 1.5 g/day): decreased
SMILES: CC/C=C\C/C=C\C/C=C\C/C=C\C/C=C\CCCC(=O)O [EPA, eicosapentaenoic acid]
Effect on DPA concentration in the phospholipid fractions of erythrocytes and plasma ([1]; 1.5 g/day): significantly increased; also recorded: elevated | Effect on EPA concentration in the phospholipid fractions of erythrocytes and plasma ([1]; 1.5 g/day (weeks 3 to 6)): significantly increased; also recorded: elevated | Change in erythrocyte DHA ([1]; higher dose (1.5 g/day)): slight, but statistically significant decrease | TNF-α synthesis in LPS-treated whole blood (TNF-α; Week 0 (baseline)): 38.9 ± 12.5^a ng/mL | TNF-α synthesis in LPS-treated whole blood (TNF-α; [2]): 32.0 ± 11.8^ab ng/mL | TNF-α synthesis in LPS-treated whole blood (TNF-α; [3]): 27.6 ± 10.6^b ng/mL | TNF-α synthesis in LPS-treated whole blood (TNF-α; [4]): 36.6 ± 16.53^a1,2 ng/mL | IL-1β synthesis in LPS-treated whole blood (IL-1β; Week 0 (baseline)): 92.0 ± 25.4^a ng/mL | IL-1β synthesis in LPS-treated whole blood (IL-1β; [2]): 75.3 ± 27.6^b ng/mL | IL-1β synthesis in LPS-treated whole blood (IL-1β; [3]): 73.5 ± 16.4^b ng/mL | IL-1β synthesis in LPS-treated whole blood (IL-1β; [4]): 93.1 ± 26.8^a1,b ng/mL | PGE2 synthesis in LPS-stimulated whole blood (prostaglandin E2 (PGE2); Week 0 (baseline)): 4.21 ± 1.59 ng/mL | PGE2 synthesis in LPS-stimulated whole blood (prostaglandin E2 (PGE2); [2]): 5.05 ± 2.16 ng/mL | PGE2 synthesis in LPS-stimulated whole blood (prostaglandin E2 (PGE2); [3]): 4.46 ± 1.47 ng/mL | PGE2 synthesis in LPS-stimulated whole blood (prostaglandin E2 (PGE2); [4]): 3.78 ± 1.95^1,2 ng/mL | Effect on LPS-stimulated PGE2 synthesis (prostaglandin E2 (PGE2); overall, either dose): no effect
